From PubChem BioAssay AID330 (DTP/NCI, 2004)
Several values for one entry are separate records, joined by “and”; a condition that tells them apart may be missing. Identical values can stand only once. Toxic doses and inconclusive results are not listed. Rule for the calls: active = survival T/C of 150% or more; inactive = T/C below 125% in these data.

Tested on: P388 leukemia ip, CD2F1 mice, survival T/C
Experiment: NCI In Vivo Anticancer Drug Screen. Data for tumor model P388 Leukemia (intraperitoneal) in CD2F1 (CDF1) mice
Conditions: endpoint: median survival time, higher = longer survival
How it was run: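 Mice carrying the transplanted tumor received test compound or vehicle. Survival was recorded in each group, and the value is the treated-group measurement divided by that of the vehicle-treated control group.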

[1] = dose: 50.0 mg/kg/injection, schedule: Q01DX009 (ip), vehicle: Klucel (hydroxypropylcellulose) (HPC)
[2] = dose: 100.0 mg/kg/injection, schedule: Q01DX009 (ip), vehicle: Klucel (hydroxypropylcellulose) (HPC)
[3] = dose: 200.0 mg/kg/injection, schedule: Q01DX009 (ip), vehicle: Klucel (hydroxypropylcellulose) (HPC)
[4] = dose: 50.0 mg/kg/injection, schedule: Q01DX009 (ip), vehicle: water
[5] = dose: 50.0 mg/kg/injection, schedule: Q01DX005 (ip), vehicle: saline with Tween-80
[6] = dose: 100.0 mg/kg/injection, schedule: Q01DX005 (ip), vehicle: saline with Tween-80
[7] = dose: 200.0 mg/kg/injection, schedule: Q01DX005 (ip), vehicle: saline with Tween-80

Measured: T/C

C[C@]12C=CC(=O)C=C1CC[C@@H]1[C@@H]2C(=O)C[C@@]2(C)[C@H]1CC[C@]2(O)C(=O)CO
inactive: dose: 25.0 mg/kg/injection, schedule: Q01DX009 (ip), vehicle: saline 106 % of control | dose: 30.0 mg/kg/injection, schedule: Q04DX002 (sc), vehicle: Klucel (hydroxypropylcellulose) (HPC) 100 % of control and 95 % of control | dose: 44.0 mg/kg/injection, schedule: Q04DX002 (sc), vehicle: Klucel (hydroxypropylcellulose) (HPC) 100 % of control | dose: 45.0 mg/kg/injection, schedule: Q04DX002 (sc), vehicle: Klucel (hydroxypropylcellulose) (HPC) 104 % of control | dose: 50.0 mg/kg/injection, schedule: Q01DX001 (oral), vehicle: saline 93 % of control | dose: 50.0 mg/kg/injection, schedule: Q01DX005 (sc), vehicle: Klucel (hydroxypropylcellulose) (HPC) 111 % of control | dose: 50.0 mg/kg/injection, schedule: Q01DX009 (ip), vehicle: saline 106 % of control | dose: 50.0 mg/kg/injection, schedule: Q01DX009 (oral), vehicle: saline 100 % of control | dose: 67.0 mg/kg/injection, schedule: Q04DX002 (sc), vehicle: Klucel (hydroxypropylcellulose) (HPC) 100 % of control and 104 % of control | dose: 100.0 mg/kg/injection, schedule: Q01DX001 (oral), vehicle: saline 100 % of control | dose: 100.0 mg/kg/injection, schedule: Q01DX005 (sc), vehicle: Klucel (hydroxypropylcellulose) (HPC) 111 % of control | dose: 100.0 mg/kg/injection, schedule: Q01DX009 (ip), vehicle: saline 106 % of control | dose: 100.0 mg/kg/injection, schedule: Q01DX009 (oral), vehicle: saline 114 % of control | dose: 100.0 mg/kg/injection, schedule: Q04DX002 (sc), vehicle: Klucel (hydroxypropylcellulose) (HPC) 98 % of control and 107 % of control | dose: 125.0 mg/kg/injection, schedule: Q01DX001 (ip), vehicle: steriod suspending solution 98 % of control and 95 % of control | dose: 133.0 mg/kg/injection, schedule: Q01DX001 (sc), vehicle: Klucel (hydroxypropylcellulose) (HPC) 100 % of control | dose: 200.0 mg/kg/injection, schedule: Q01DX001 (oral), vehicle: saline 100 % of control | dose: 200.0 mg/kg/injection, schedule: Q01DX001 (sc), vehicle: Klucel (hydroxypropylcellulose) (HPC) 100 % of control | dose: 200.0 mg/kg/injection, schedule: Q01DX005 (sc), vehicle: Klucel (hydroxypropylcellulose) (HPC) 115 % of control | dose: 200.0 mg/kg/injection, schedule: Q01DX009 (ip), vehicle: saline 106 % of control | dose: 200.0 mg/kg/injection, schedule: Q01DX009 (oral), vehicle: saline 100 % of control | dose: 250.0 mg/kg/injection, schedule: Q01DX001 (ip), vehicle: steriod suspending solution 91 % of control and 95 % of control | dose: 300.0 mg/kg/injection, schedule: Q01DX001 (sc), vehicle: Klucel (hydroxypropylcellulose) (HPC) 107 % of control | dose: 400.0 mg/kg/injection, schedule: Q01DX001 (oral), vehicle: saline 87 % of control | dose: 400.0 mg/kg/injection, schedule: Q01DX005 (sc), vehicle: Klucel (hydroxypropylcellulose) (HPC) 115 % of control | dose: 400.0 mg/kg/injection, schedule: Q01DX009 (ip), vehicle: saline 106 % of control | dose: 400.0 mg/kg/injection, schedule: Q01DX009 (oral), vehicle: saline 114 % of control | dose: 450.0 mg/kg/injection, schedule: Q01DX001 (sc), vehicle: Klucel (hydroxypropylcellulose) (HPC) 108 % of control | dose: 500.0 mg/kg/injection, schedule: Q01DX001 (ip), vehicle: steriod suspending solution 91 % of control and 94 % of control | dose: 800.0 mg/kg/injection, schedule: Q01DX001 (oral), vehicle: saline 100 % of control | dose: 800.0 mg/kg/injection, schedule: Q01DX005 (ip), vehicle: Klucel (hydroxypropylcellulose) (HPC) 108 % of control | dose: 800.0 mg/kg/injection, schedule: Q01DX005 (sc), vehicle: Klucel (hydroxypropylcellulose) (HPC) 113 % of control | dose: 800.0 mg/kg/injection, schedule: Q01DX009 (oral), vehicle: saline 107 % of control | dose: 1000.0 mg/kg/injection, schedule: Q01DX001 (ip), vehicle: steriod suspending solution 34 % of control | dose: 1600.0 mg/kg/injection, schedule: Q01DX005 (ip), vehicle: Klucel (hydroxypropylcellulose) (HPC) 116 % of control | dose: 1600.0 mg/kg/injection, schedule: Q01DX005 (sc), vehicle: Klucel (hydroxypropylcellulose) (HPC) 100 % of control | dose: 6400.0 mg/kg/injection, schedule: Q01DX005 (sc), vehicle: Klucel (hydroxypropylcellulose) (HPC) 102 % of control

COC(=O)C1=C(C(=O)OC)C2C=CC1C1C(OC(C)=O)C(OC(C)=O)C21 (stereo unspecified)
inactive: [1] 100 % of control | [2] 100 % of control | [3] 107 % of control

Cc1csc(NN=O)n1
inactive: dose: 1.56 mg/kg/injection, schedule: Q01DX009 (ip), vehicle: water 98 % of control | dose: 3.12 mg/kg/injection, schedule: Q01DX009 (ip), vehicle: water 104 % of control and 95 % of control | dose: 6.25 mg/kg/injection, schedule: Q01DX009 (ip), vehicle: water 105 % of control and 96 % of control | dose: 12.5 mg/kg/injection, schedule: Q01DX009 (ip), vehicle: water 100 % of control and 102 % of control | dose: 25.0 mg/kg/injection, schedule: Q01DX009 (ip), vehicle: water 99 % of control and 102 % of control | [4] 111 % of control

COc1ccc2c(c1)C(c1cccc3ccccc13)OC2 (stereo unspecified)
inactive: dose: 12.5 mg/kg/injection, schedule: Q01DX005 (ip), vehicle: Klucel (hydroxypropylcellulose) (HPC) 100 % of control | dose: 25.0 mg/kg/injection, schedule: Q01DX005 (ip), vehicle: Klucel (hydroxypropylcellulose) (HPC) 88 % of control | dose: 50.0 mg/kg/injection, schedule: Q01DX005 (ip), vehicle: Klucel (hydroxypropylcellulose) (HPC) 86 % of control and 91 % of control

c1ccc2c(NCCCN3CCN(CCCNc4c5ccccc5nc5ccccc45)CC3)c3ccccc3nc2c1
inactive: dose: 0.93 mg/kg/injection, schedule: Q01DX005 (ip), vehicle: Klucel (hydroxypropylcellulose) (HPC) 110 % of control | dose: 1.88 mg/kg/injection, schedule: Q01DX005 (ip), vehicle: Klucel (hydroxypropylcellulose) (HPC) 104 % of control

O=C(CNC(=O)Nc1ccc(Cl)c(Cl)c1)N/N=C/C=C/c1ccccc1
inactive: dose: 15.0 mg/kg/injection, schedule: Q01DX005 (ip), vehicle: saline with Tween-80 96 % of control | dose: 30.0 mg/kg/injection, schedule: Q01DX005 (ip), vehicle: saline with Tween-80 87 % of control

Cc1ccc2nc(/N=C/c3ccc(N(C)C)cc3)sc2c1
inactive: dose: 100.0 mg/kg/injection, schedule: Q04DX003 (ip), vehicle: saline 109 % of control | dose: 200.0 mg/kg/injection, schedule: Q04DX003 (ip), vehicle: saline 107 % of control | dose: 400.0 mg/kg/injection, schedule: Q04DX003 (ip), vehicle: saline 101 % of control

OC(C1CCCCC1)C1CCCCC1Cl (stereo unspecified)
inactive: [5] 102 % of control | [6] 102 % of control | [7] 102 % of control

Nc1ccc2c3c(cccc13)C(=O)N(CCCBr)C2=O
inactive: dose: 60.0 mg/kg/injection, schedule: Q01DX005 (ip), vehicle: saline with Tween-80 103 % of control | dose: 120.0 mg/kg/injection, schedule: Q01DX005 (ip), vehicle: saline with Tween-80 113 % of control | dose: 240.0 mg/kg/injection, schedule: Q01DX005 (ip), vehicle: saline with Tween-80 107 % of control

Cc1nnc(SCC2=C(C(=O)O)N3C(=O)C(NC(=O)Cn4cc(Cl)c(=O)c(Cl)c4)C3SC2)s1 (stereo unspecified)
inactive: [4] 105 % of control | dose: 100.0 mg/kg/injection, schedule: Q01DX009 (ip), vehicle: water 101 % of control | dose: 200.0 mg/kg/injection, schedule: Q01DX009 (ip), vehicle: water 100 % of control

S=C(N/N=C/c1ccc2c(c1)OCO2)NC1CCCCC1
inactive: [1] 111 % of control | [2] 111 % of control | [3] 116 % of control

CCC1CCCN(CCc2c(C3(CO)CCC(CO)c4c(CCN5CCCC(CC)C5)c5ccccc5n43)[nH]c3ccccc23)C1 (stereo unspecified)
inactive: dose: 0.7 mg/kg/injection, schedule: Q01DX009 (ip), vehicle: saline with Tween-80 106 % of control | dose: 1.4 mg/kg/injection, schedule: Q01DX009 (ip), vehicle: saline with Tween-80 102 % of control | dose: 2.8 mg/kg/injection, schedule: Q01DX009 (ip), vehicle: saline with Tween-80 102 % of control

Nc1ncnc2cc3cn[nH]c3cc12
inactive: dose: 12.5 mg/kg/injection, schedule: Q01DX005 (ip), vehicle: saline with Tween-80 96 % of control | dose: 25.0 mg/kg/injection, schedule: Q01DX005 (ip), vehicle: saline with Tween-80 95 % of control | [5] 94 % of control and 97 % of control | [6] 91 % of control | [7] 100 % of control
